Measured values published in PubChem BioAssay (NCI).
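GI50 marks 50% less growth. At the TGI there is no net growth.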

How the values were obtained:
Test in all cases: inhibition of tumour cell growth, NCI panel, 384-well format
KM12 colon = system: KM12 colon
NCI-H522 lung = system: NCI-H522 lung
HS 578T breast = system: HS 578T breast
OVCAR-5 ovarian = system: OVCAR-5 ovarian
EKVX NSCLC = system: EKVX NSCLC
SNB-19 CNS = system: SNB-19 CNS
COLO 205 colon = system: COLO 205 colon
MDA-MB-435 melanoma = system: MDA-MB-435 melanoma
A498 renal = system: A498 renal
BT-549 breast = system: BT-549 breast
T-47D breast = system: T-47D breast
LOX IMVI melanoma = system: LOX IMVI melanoma
HCT-15 colon = system: HCT-15 colon
HOP-62 NSCLC = system: HOP-62 NSCLC
SF-268 CNS = system: SF-268 CNS
SK-OV-3 ovarian = system: SK-OV-3 ovarian
PC-3 prostate = system: PC-3 prostate
HT29 colon = system: HT29 colon
NCI-H226 lung = system: NCI-H226 lung
OVCAR-4 ovarian = system: OVCAR-4 ovarian
MALME-3M melanoma = system: MALME-3M melanoma
NCI/ADR-RES ovarian = system: NCI/ADR-RES ovarian
HCT-116 colon = system: HCT-116 colon
M14 melanoma = system: M14 melanoma
U251 glioblastoma = system: U251 glioblastoma
IGROV1 ovarian = system: IGROV1 ovarian
SF-539 CNS = system: SF-539 CNS
SF-295 CNS = system: SF-295 CNS
UACC-62 melanoma = system: UACC-62 melanoma
UACC-257 melanoma = system: UACC-257 melanoma
HCC-2998 colon = system: HCC-2998 colon
HL-60(TB) leukemia = system: HL-60(TB) leukemia
SN12C renal = system: SN12C renal
HOP-92 NSCLC = system: HOP-92 NSCLC
NCI-H322M lung = system: NCI-H322M lung
RPMI-8226 leukemia = system: RPMI-8226 leukemia
OVCAR-3 ovarian = system: OVCAR-3 ovarian
A549 NSCLC = system: A549 NSCLC
SNB-75 CNS = system: SNB-75 CNS
MOLT-4 leukemia = system: MOLT-4 leukemia
RXF 393 renal = system: RXF 393 renal
MDA-MB-468 breast = system: MDA-MB-468 breast
ACHN renal = system: ACHN renal
MCF7 breast = system: MCF7 breast
SK-MEL-5 melanoma = system: SK-MEL-5 melanoma
SR leukemia = system: SR leukemia
TK-10 renal = system: TK-10 renal
SK-MEL-28 melanoma = system: SK-MEL-28 melanoma
CAKI-1 renal = system: CAKI-1 renal
DU-145 prostate = system: DU-145 prostate
MDA-MB-231 breast = system: MDA-MB-231 breast
NCI-H460 NSCLC = system: NCI-H460 NSCLC
NCI-H23 lung = system: NCI-H23 lung
OVCAR-8 ovarian = system: OVCAR-8 ovarian

For `O=C(Oc1ccc([N+](=O)[O-])cc1)N1CCN(Cc2cccc(Oc3ccccc3)c2)CC1`, the GI50 (KM12 colon) was 99.3 µM, the TGI (KM12 colon) was > 100 µM and the GI50 (NCI-H522 lung) was 22.9 µM. For the same molecule, the TGI (NCI-H522 lung) was > 100 µM, the GI50 (HS 578T breast) was 92.3 µM and the TGI (HS 578T breast) was > 100 µM. For the same molecule, the GI50 (OVCAR-5 ovarian) was > 100 µM, the TGI (OVCAR-5 ovarian) was > 100 µM and the GI50 (EKVX NSCLC) was 44.1 µM. The TGI (EKVX NSCLC) was > 100 µM, the GI50 (SNB-19 CNS) was > 100 µM and the TGI (SNB-19 CNS) was > 100 µM. The GI50 (COLO 205 colon) was > 100 µM, the TGI (COLO 205 colon) was > 100 µM and the GI50 (MDA-MB-435 melanoma) was > 100 µM. The TGI (MDA-MB-435 melanoma) was > 100 µM, the GI50 (A498 renal) was 42.1 µM and the TGI (A498 renal) was > 100 µM. The GI50 (BT-549 breast) was 67.1 µM, the TGI (BT-549 breast) was > 100 µM and the GI50 (T-47D breast) was 30.6 µM. The TGI (T-47D breast) was > 100 µM, the GI50 (LOX IMVI melanoma) was 53.9 µM and the TGI (LOX IMVI melanoma) was > 100 µM. For the same molecule, the GI50 (HCT-15 colon) was 49.2 µM, the TGI (HCT-15 colon) was > 100 µM and the GI50 (HOP-62 NSCLC) was > 100 µM. For the same molecule, the TGI (HOP-62 NSCLC) was > 100 µM, the GI50 (SF-268 CNS) was > 100 µM and the TGI (SF-268 CNS) was > 100 µM. The GI50 (SK-OV-3 ovarian) was > 100 µM, the TGI (SK-OV-3 ovarian) was > 100 µM and the GI50 (PC-3 prostate) was > 100 µM. For the same molecule, the TGI (PC-3 prostate) was > 100 µM, the GI50 (HT29 colon) was 51.6 µM and the TGI (HT29 colon) was > 100 µM. The GI50 (NCI-H226 lung) was > 100 µM, the TGI (NCI-H226 lung) was > 100 µM and the GI50 (OVCAR-4 ovarian) was 30.9 µM. For the same molecule, the TGI (OVCAR-4 ovarian) was > 100 µM, the GI50 (MALME-3M melanoma) was > 100 µM and the TGI (MALME-3M melanoma) was > 100 µM. The GI50 (NCI/ADR-RES ovarian) was 27.5 µM, the TGI (NCI/ADR-RES ovarian) was > 100 µM and the GI50 (HCT-116 colon) was 42.7 µM. For the same molecule, the TGI (HCT-116 colon) was > 100 µM, the GI50 (M14 melanoma) was > 100 µM and the TGI (M14 melanoma) was > 100 µM. The GI50 (U251 glioblastoma) was > 100 µM, the TGI (U251 glioblastoma) was > 100 µM and the GI50 (IGROV1 ovarian) was > 100 µM. The TGI (IGROV1 ovarian) was > 100 µM, the GI50 (SF-539 CNS) was > 100 µM and the TGI (SF-539 CNS) was > 100 µM. For the same molecule, the GI50 (SF-295 CNS) was > 100 µM, the TGI (SF-295 CNS) was > 100 µM and the GI50 (UACC-62 melanoma) was > 100 µM. The TGI (UACC-62 melanoma) was > 100 µM, the GI50 (UACC-257 melanoma) was 23.2 µM and the TGI (UACC-257 melanoma) was > 100 µM. The GI50 (HCC-2998 colon) was 47.3 µM, the TGI (HCC-2998 colon) was > 100 µM and the GI50 (HL-60(TB) leukemia) was 13.2 µM. The TGI (HL-60(TB) leukemia) was 34.2 µM, the GI50 (SN12C renal) was 33.8 µM and the TGI (SN12C renal) was > 100 µM. The GI50 (HOP-92 NSCLC) was > 100 µM, the TGI (HOP-92 NSCLC) was > 100 µM and the GI50 (NCI-H322M lung) was 46.2 µM. For the same molecule, the TGI (NCI-H322M lung) was > 100 µM, the GI50 (RPMI-8226 leukemia) was 25.4 µM and the TGI (RPMI-8226 leukemia) was > 100 µM. The GI50 (OVCAR-3 ovarian) was > 100 µM, the TGI (OVCAR-3 ovarian) was > 100 µM and the GI50 (A549 NSCLC) was > 100 µM. The TGI (A549 NSCLC) was > 100 µM, the GI50 (SNB-75 CNS) was > 100 µM and the TGI (SNB-75 CNS) was > 100 µM. For the same molecule, the GI50 (MOLT-4 leukemia) was 41.4 µM, the TGI (MOLT-4 leukemia) was > 100 µM and the GI50 (RXF 393 renal) was 48 µM. For the same molecule, the TGI (RXF 393 renal) was > 100 µM, the GI50 (MDA-MB-468 breast) was 20.6 µM and the TGI (MDA-MB-468 breast) was > 100 µM. For the same molecule, the GI50 (ACHN renal) was > 100 µM, the TGI (ACHN renal) was > 100 µM and the GI50 (MCF7 breast) was 31 µM. For the same molecule, the TGI (MCF7 breast) was > 100 µM, the GI50 (SK-MEL-5 melanoma) was 18 µM and the TGI (SK-MEL-5 melanoma) was 55.2 µM. The GI50 (SR leukemia) was 16.7 µM, the TGI (SR leukemia) was 32.9 µM and the GI50 (TK-10 renal) was 46.7 µM. For the same molecule, the TGI (TK-10 renal) was > 100 µM, the GI50 (SK-MEL-28 melanoma) was > 100 µM and the TGI (SK-MEL-28 melanoma) was > 100 µM. For the same molecule, the GI50 (CAKI-1 renal) was > 100 µM, the TGI (CAKI-1 renal) was > 100 µM and the GI50 (DU-145 prostate) was > 100 µM. For the same molecule, the TGI (DU-145 prostate) was > 100 µM, the GI50 (MDA-MB-231 breast) was > 100 µM and the TGI (MDA-MB-231 breast) was > 100 µM. The GI50 (NCI-H460 NSCLC) was 21.6 µM, the TGI (NCI-H460 NSCLC) was 59.6 µM and the GI50 (NCI-H23 lung) was 53.8 µM. For the same molecule, the TGI (NCI-H23 lung) was > 100 µM, the GI50 (OVCAR-8 ovarian) was > 100 µM and the TGI (OVCAR-8 ovarian) was > 100 µM.
